Holding throughout (assay type): biochemical
For one test, the target named is Yes (h) (Homo sapiens, UniProt P07947). Kind of test: Yes human kinase assay (glass-fiber filter). Conditions: test concentration of 10^−6M; for inhibition at 1 µM: read-out: C11 score (inhibition of Yes human). Summed up: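 Yes (h) (5-10 mU) with 0.1 mg/ml poly(Glu, Tyr) 4:1 in 8 mM MOPS pH 7.0, 0.2 mM EDTA, 10 mM MgAcetate and [γ-^33P-ATP], 40 minutes at room temperature. Stopped with phosphoric acid; substrate-bound ^33P counted on glass-fiber filter by scintillation.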

Another test addresses cSRC (h) (Homo sapiens, UniProt P12931). Kind of test: cSRC human kinase assay (glass-fiber filter). Conditions: test concentration of 10^−6M; for inhibition at 1 µM: read-out: C3 score (inhibition of cSRC human). An outline of the steps:
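Radiometric assay: kinase and substrate are incubated with [33P]ATP, with the reaction started by MgATP mix. The reaction is spotted on P30 filtermat, washed in 75 mM phosphoric acid and methanol, and the bound 33P is measured by scintillation counting.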

Another test concerns the target GSK3B (h) (Homo sapiens, UniProt P49841). In words: GSK3β human kinase assay (glass-fiber filter). Conditions: test concentration of 10^−6M; for inhibition at 1 µM: read-out: C8 score (inhibition of GSK3β human). Summed up:
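Human GSK3β (5-10 mU) with 20 μM phospho GS2 peptide, [γ-^33P]ATP, 8 mM MOPS pH 7.0, 10 mM Mg acetate; 40 min at room temperature. Stopped with phosphoric acid; substrate phosphorylation read as filter-bound radioactivity by scintillation counting.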

A further test deals with Lyn (h) (Homo sapiens, UniProt P07948). Kind of test: Lyn human kinase assay (glass-fiber filter). Conditions: test concentration of 10^−6M; for inhibition at 1 µM: read-out: C10 score (inhibition of Lyn human). Summed up: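 Human Lyn (5-10 mU) phosphorylating poly(Glu,Tyr) 4:1 at 0.1 mg/ml with [γ-33P]ATP (concentration as required) in 50 mM Tris pH 7.5, 10 mM Mg acetate, 40 min at room temperature. Stopped with phosphoric acid; substrate-bound radioactivity counted on glass-fibre filter.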

In the next test the target is Lck (h) (Homo sapiens, UniProt P06239). Kind of test: Lck human kinase assay (glass-fiber filter). Conditions: test concentration of 10^−6M; for inhibition at 1 µM: read-out: C9 score (inhibition of Lck human). An outline of the steps:
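Kinase activity measured as transfer of (^33P) from radiolabeled MgATP to substrate, captured on P30 glass-fiber filtermat, washed in 75 mM phosphoric acid and methanol, then scintillation counted.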

In the next test the target is Fes (h) (Homo sapiens, UniProt P07332). In words: Fes human kinase assay (glass-fiber filter). Conditions: test concentration of 10^−6M; for inhibition at 1 µM: read-out: C4 score (inhibition of Fes human). An outline of the steps: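 Human Fes (5–10 mU) was incubated with 0.1 mg/ml poly(Glu,Tyr) 4:1 in 8 mM MOPS pH 7.0, 0.2 mM EDTA, 10 mM Mg acetate and [γ-33P]ATP for 40 min at room temperature. The reaction was stopped with phosphoric acid, and substrate phosphorylation was quantified by filter binding and scintillation counting.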

In another test the target is Flt3 (h) (Homo sapiens, UniProt P36888). Kind of test: Flt3 human kinase assay (glass-fiber filter). Conditions: test concentration of 10^−6M; for inhibition at 1 µM: read-out: C6 score (inhibition of Flt3 human). An outline of the steps: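 Human Flt3 (5-10 mU) with 50 μM peptide substrate in 8 mM MOPS pH 7.0, 0.2 mM EDTA, 10 mM Mg acetate and [γ-33P]ATP (concentration as required), 40 min at room temperature. Reaction stopped with phosphoric acid; substrate 33P incorporation counted on P30 glass-fiber filter.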

Some results are limits rather than exact numbers.

Broadly, the inhibition is the relative decrease from the control value, in per cent.

Lyn (h), sequence (P07948 whole entry): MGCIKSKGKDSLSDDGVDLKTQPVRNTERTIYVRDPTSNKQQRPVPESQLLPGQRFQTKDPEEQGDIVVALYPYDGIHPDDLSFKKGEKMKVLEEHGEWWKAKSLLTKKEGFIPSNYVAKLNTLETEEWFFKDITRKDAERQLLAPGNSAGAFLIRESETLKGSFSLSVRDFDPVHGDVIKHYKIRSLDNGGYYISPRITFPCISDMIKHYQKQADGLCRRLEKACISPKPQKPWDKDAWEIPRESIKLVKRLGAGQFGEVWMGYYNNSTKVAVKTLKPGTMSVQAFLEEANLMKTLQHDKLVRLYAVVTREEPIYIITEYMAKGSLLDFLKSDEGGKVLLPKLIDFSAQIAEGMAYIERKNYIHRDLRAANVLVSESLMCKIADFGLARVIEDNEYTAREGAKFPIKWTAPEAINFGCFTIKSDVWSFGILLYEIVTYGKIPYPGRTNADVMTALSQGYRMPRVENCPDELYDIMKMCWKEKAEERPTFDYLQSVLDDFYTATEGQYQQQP
Yes (h), sequence (P07947 whole entry): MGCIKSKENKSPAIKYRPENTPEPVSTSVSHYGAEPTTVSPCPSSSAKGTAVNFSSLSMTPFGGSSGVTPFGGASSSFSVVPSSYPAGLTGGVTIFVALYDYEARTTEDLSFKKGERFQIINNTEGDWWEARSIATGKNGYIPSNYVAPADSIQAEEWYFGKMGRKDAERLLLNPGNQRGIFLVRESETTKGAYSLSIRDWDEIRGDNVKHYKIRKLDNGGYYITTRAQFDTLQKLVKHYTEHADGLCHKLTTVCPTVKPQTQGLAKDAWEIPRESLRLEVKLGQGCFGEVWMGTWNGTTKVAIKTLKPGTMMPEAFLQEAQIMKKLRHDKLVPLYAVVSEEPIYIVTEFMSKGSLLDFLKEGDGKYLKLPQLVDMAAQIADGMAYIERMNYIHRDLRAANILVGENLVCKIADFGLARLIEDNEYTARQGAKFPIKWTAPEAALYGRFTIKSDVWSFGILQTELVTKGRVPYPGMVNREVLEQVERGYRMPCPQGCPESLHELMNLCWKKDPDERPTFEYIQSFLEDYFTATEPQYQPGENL
GSK3B (h), sequence (P49841 whole entry): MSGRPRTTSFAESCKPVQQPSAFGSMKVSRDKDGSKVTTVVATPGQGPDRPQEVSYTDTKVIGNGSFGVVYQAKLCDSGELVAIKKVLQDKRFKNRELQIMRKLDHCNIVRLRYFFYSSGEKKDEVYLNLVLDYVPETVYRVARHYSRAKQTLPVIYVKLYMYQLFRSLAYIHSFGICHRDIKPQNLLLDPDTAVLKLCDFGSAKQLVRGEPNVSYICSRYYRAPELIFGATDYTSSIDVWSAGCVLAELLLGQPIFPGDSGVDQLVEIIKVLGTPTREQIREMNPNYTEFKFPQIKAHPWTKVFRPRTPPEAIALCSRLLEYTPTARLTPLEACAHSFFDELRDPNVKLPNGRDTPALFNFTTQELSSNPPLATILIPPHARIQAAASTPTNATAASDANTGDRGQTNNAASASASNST
Flt3 (h), sequence (P36888 27-993): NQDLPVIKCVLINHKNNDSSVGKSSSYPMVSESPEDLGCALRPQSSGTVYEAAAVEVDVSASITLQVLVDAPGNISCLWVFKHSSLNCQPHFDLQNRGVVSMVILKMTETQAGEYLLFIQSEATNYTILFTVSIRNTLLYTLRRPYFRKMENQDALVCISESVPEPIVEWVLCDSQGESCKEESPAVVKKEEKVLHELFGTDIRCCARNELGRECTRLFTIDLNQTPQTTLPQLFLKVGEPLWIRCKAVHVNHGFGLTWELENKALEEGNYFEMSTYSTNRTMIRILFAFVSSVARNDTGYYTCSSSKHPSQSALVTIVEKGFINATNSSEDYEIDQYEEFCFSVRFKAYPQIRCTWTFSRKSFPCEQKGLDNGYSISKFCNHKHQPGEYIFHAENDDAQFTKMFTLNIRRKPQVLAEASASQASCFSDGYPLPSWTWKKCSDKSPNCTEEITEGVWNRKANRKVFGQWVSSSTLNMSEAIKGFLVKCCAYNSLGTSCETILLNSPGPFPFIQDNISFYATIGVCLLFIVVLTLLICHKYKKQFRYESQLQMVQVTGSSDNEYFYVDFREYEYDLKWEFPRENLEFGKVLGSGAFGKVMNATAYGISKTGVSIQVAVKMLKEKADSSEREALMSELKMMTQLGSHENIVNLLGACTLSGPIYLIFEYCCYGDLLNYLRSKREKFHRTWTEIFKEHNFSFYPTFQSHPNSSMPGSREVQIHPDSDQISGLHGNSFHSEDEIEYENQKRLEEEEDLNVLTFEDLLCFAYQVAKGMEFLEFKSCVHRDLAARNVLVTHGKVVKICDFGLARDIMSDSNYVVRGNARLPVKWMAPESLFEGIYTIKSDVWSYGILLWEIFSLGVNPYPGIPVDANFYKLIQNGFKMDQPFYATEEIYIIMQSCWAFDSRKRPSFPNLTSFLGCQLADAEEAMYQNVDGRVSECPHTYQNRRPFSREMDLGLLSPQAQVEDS
Lck (h), sequence (P06239 whole entry): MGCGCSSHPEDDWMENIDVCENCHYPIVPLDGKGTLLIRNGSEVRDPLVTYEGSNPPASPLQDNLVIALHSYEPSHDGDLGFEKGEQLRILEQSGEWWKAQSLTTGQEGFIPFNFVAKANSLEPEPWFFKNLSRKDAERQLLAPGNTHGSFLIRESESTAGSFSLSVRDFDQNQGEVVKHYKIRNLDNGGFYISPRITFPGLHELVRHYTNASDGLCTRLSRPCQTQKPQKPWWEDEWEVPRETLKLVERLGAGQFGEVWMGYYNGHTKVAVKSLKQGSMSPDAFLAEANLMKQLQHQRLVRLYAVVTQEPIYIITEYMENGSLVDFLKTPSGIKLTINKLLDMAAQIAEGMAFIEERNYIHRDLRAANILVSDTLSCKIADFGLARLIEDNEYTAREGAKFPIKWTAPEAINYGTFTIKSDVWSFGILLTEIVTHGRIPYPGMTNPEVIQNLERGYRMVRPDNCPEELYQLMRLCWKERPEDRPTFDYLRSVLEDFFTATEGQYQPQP
Fes (h), sequence (P07332 whole entry): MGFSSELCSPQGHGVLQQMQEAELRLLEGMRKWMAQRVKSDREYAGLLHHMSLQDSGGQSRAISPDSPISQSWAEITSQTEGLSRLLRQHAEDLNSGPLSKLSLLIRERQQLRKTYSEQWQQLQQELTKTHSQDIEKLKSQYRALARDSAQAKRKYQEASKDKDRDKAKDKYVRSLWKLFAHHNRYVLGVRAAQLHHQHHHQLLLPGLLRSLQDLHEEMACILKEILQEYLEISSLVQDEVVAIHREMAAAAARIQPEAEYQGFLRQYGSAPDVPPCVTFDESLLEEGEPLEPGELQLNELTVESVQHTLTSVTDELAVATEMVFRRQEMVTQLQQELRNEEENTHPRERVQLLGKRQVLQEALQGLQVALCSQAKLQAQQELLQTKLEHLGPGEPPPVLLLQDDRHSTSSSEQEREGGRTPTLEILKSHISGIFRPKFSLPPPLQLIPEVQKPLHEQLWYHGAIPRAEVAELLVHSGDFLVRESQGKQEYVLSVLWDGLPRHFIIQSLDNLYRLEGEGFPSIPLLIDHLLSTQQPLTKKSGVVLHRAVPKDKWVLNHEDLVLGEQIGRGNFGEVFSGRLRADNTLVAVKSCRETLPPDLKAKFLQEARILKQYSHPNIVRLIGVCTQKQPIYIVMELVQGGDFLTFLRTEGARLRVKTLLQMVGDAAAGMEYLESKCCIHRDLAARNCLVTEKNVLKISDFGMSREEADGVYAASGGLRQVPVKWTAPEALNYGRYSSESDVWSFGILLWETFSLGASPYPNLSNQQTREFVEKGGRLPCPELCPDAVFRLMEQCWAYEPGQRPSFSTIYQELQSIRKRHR

Take `N#Cc1cnc2nc1Nc1cccc(c1)OCC(=O)NCCCOc1cccc(c1)N2` [Compound 25, 14,21-dioxa-2,4,8,17,28-pentaazatetracyclo[20.3.1.1~3,7~.1~9,13~]octacosa-1(26),3,5,7(28),9,11,13(27),22,24-nonaene-6-carbonitrile, 16-oxo-]: the inhibition at 1 µM at Yes (h) was in the range of 10 to 30%; on cSRC (h) it was 10 to 30%; at GSK3B (h), 30 to 60%; on Lyn (h), 10 to 30%; on Lck (h), 30 to 60%; at Fes (h) it was 60 to 80%. Also, the inhibition at 1 µM on Flt3 (h) was over 80%.
With `COc1ccc2cc1OCCCNC(=O)C(C)(C)NC(=O)Cc1ccc(Cl)cc1Nc1cc(ncn1)N2` [Compound 105, 6,2:8,12-dimetheno-7H-13,1,3,5,7,17,20-benzoxahexaazacyclotetracosine-18,21-dione, 25-chloro-1,14,15,16,17,19,20,22-octahydro-11-methoxy-19,19-dimethyl-], the inhibition at 1 µM at Yes (h) was over 80%; on cSRC (h), over 80%; on GSK3B (h) it was 10 to 30%; on Lyn (h), over 80%; at Lck (h), over 80%; on Fes (h) it was 60 to 80%.
In the case of `N#Cc1cnc2nc1Nc1cccc(c1)OCC(=O)NCCCCOc1cccc(c1)N2` [Compound 26, 14,22-dioxa-2,4,8,17,29-pentaazatetracyclo[21.3.1.1~3,7~.1~9,13~]nonacosa-1(27),3,5,7(29),9,11,13(28),23,25-nonaene-6-carbonitrile, 16-oxo-], the inhibition at 1 µM at Yes (h) lay in the range of 10 to 30%; at cSRC (h) it was 10 to 30%; on GSK3B (h), 10 to 30%; at Lyn (h), 30 to 60%; at Lck (h) it was 10 to 30%; at Fes (h) it was 30 to 60%. For the same compound, at Flt3 (h), the inhibition at 1 µM lay within 60 to 80%.
For the compound `CC1(C)NC(=O)Cc2ccc(Cl)cc2Nc2cc(ncn2)Nc2ccc(OCCCN3CCOCC3)c(c2)OCCNC1=O` [Compound 106, 1H,7H-6,2:8,12-dimetheno-13,1,3,5,7,16,19-benzoxahexaazacyclotricosine-17,20(14H)-dione, 24-chloro-15,16,18,19,21-pentahydro-18,18-dimethyl-11-[3-(4-morpholinyl)propoxy]-], the inhibition at 1 µM at Yes (h) is over 80%; on cSRC (h), over 80%; at GSK3B (h), 10 to 30%; on Lyn (h), over 80%; at Lck (h), over 80%; on Fes (h) it was over 80%. Also, the inhibition at 1 µM on Flt3 (h) fell in the range of 10 to 30%.
For `COc1ccc2cc1OCCCCCCOc1ccc(Br)cc1Nc1cc(ncn1)N2` [Compound 36, 1H,7H-2,6: 12,8-dimetheno-13,20,1,3,5,7-benzodioxatetraazacyclodocosine, 23-bromo-14,15,16,17,18,19-hexahydro-11-methoxy-], the “C11 score (inhibition of Yes human)” value on Yes (h) is reported as 1 (Score 1=10-30% inhibition). Further, on cSRC (h), the “C3 score (inhibition of cSRC human)” value was 1 (Score 1=10-30% inhibition). For the same compound, the “C10 score (inhibition of Lyn human)” value at Lyn (h) was 3 (Score 3=60-80% inhibition). The “C9 score (inhibition of Lck human)” value at Lck (h) was 2 (Score 2=30-60% inhibition). Moreover, on Fes (h), the “C4 score (inhibition of Fes human)” value is on record as 1 (Score 1=10-30% inhibition). Besides, the “C6 score (inhibition of Flt3 human)” value on Flt3 (h) is 1 (Score 1=10-30% inhibition).
`COc1ccc2cc1OCCNC(=O)CNC(=O)Cc1ccc(Cl)cc1Nc1cc(ncn1)N2` [Compound 103, 1H,7H-6,2:12,8-dimetheno-13,1,3,5,7,16,19-benzoxahexaazacyclotricosine-17,20(14H)-dione, 24-chloro-15,16,18,19,21-pentahydro-11-methoxy-]: the inhibition at 1 µM on Yes (h) is over 80%; at cSRC (h), over 80%; on GSK3B (h), 10 to 30%; at Lyn (h), over 80%; on Lck (h), over 80%; on Fes (h) it was 60 to 80%.
Take `COc1ccc2c(c1)OCCCCCCOc1ccc(Cl)cc1Nc1cc(ncn1)N2` [Compound 34, 11H-6,10-metheno-5H-dibenzo[b,k][1,13,4,6,8,10]dioxatetraazacyclononadecine, 13-chloro-17,18,19,20,21,22-hexahydro-2-methoxy-]: the inhibition at 1 µM at Yes (h), at cSRC (h), at Lyn (h), on Lck (h), on Fes (h) and on Flt3 (h) was 10 to 30% each time.
Regarding `COc1ccc2cc1OCCCCCCCOc1ccc(Br)cc1Nc1cc(ncn1)N2` [Compound 37, 1H,7H-2,6: 12,8-dimetheno-14H-13,21,1,3,5,7-benzodioxatetraazacyclotricosine, 24-bromo-15,16,17,18,19,20-hexahydro-11-methoxy-], the “C11 score (inhibition of Yes human)” value on Yes (h) is 1 (Score 1=10-30% inhibition). Further, the “C3 score (inhibition of cSRC human)” value at cSRC (h) is listed as 1 (Score 1=10-30% inhibition). Moreover, on GSK3B (h), the “C8 score (inhibition of GSK3β human)” value is recorded as 1 (Score 1=10-30% inhibition). Moreover, at Lyn (h), the “C10 score (inhibition of Lyn human)” value is recorded as 2 (Score 2=30-60% inhibition). In addition, the “C9 score (inhibition of Lck human)” value at Lck (h) was 2 (Score 2=30-60% inhibition). Besides, the “C4 score (inhibition of Fes human)” value at Fes (h) is given as 1 (Score 1=10-30% inhibition).
As to `N#Cc1cnc2nc1Nc1cccc(c1)OCCCNC(=O)COc1cccc(c1)N2` [Compound 28, 14,21-dioxa-2,4,8,18,28-pentaazatetracyclo[20.3.1.1~3,7~.1~9,13~]octacosa-1(26),3,5,7(28),9,11,13(27),22,24-nonaene-6-carbonitrile, 19-oxo-], the inhibition at 1 µM on Yes (h) is 60 to 80%; on cSRC (h), 30 to 60%; on GSK3B (h), 60 to 80%; at Lyn (h), 10 to 30%; on Lck (h), 30 to 60%; on Fes (h), 10 to 30%. The inhibition at 1 µM on Flt3 (h) fell in the range of 60 to 80%.
Consider “12,8-metheno-6,2-nitrilo-7H-13,1,5,7,16,19-benzoxapentaazacyclodocosine-3-carbonitrile, 23-chloro-1,14,15,16,17,18,19,20-octahydro-11-methoxy-19-methyl-17-oxo- [Compound 32]”, for which the “C11 score (inhibition of Yes human)” value at Yes (h) is recorded as 4 (Score 4=>80% inhibition). Moreover, the “C3 score (inhibition of cSRC human)” value at cSRC (h) was 4 (Score 4=>80% inhibition). The “C8 score (inhibition of GSK3β human)” value at GSK3B (h) is reported as 4 (Score 4=>80% inhibition). Moreover, at Lyn (h), the “C10 score (inhibition of Lyn human)” value is 4 (Score 4=>80% inhibition). Besides, the “C9 score (inhibition of Lck human)” value on Lck (h) is 4 (Score 4=>80% inhibition). For the same compound, the “C4 score (inhibition of Fes human)” value at Fes (h) is 4 (Score 4=>80% inhibition). Also, at Flt3 (h), the “C6 score (inhibition of Flt3 human)” value is reported as 4 (Score 4=>80% inhibition).
In the case of “1H,7H-2,6: 12,8-dimetheno-14H-13,19,1,3,5,7-benzodioxatetraazacycloheneicosine, 22-bromo-15,16,17,18-tetrahydro-11-methoxy- [Compound 35]”, at Yes (h), the “C11 score (inhibition of Yes human)” value is 3 (Score 3=60-80% inhibition). Moreover, the “C3 score (inhibition of cSRC human)” value at cSRC (h) was 1 (Score 1=10-30% inhibition). Besides, the “C8 score (inhibition of GSK3β human)” value at GSK3B (h) is 1 (Score 1=10-30% inhibition). The “C10 score (inhibition of Lyn human)” value at Lyn (h) is 2 (Score 2=30-60% inhibition). For the same compound, the “C9 score (inhibition of Lck human)” value at Lck (h) was 2 (Score 2=30-60% inhibition). Besides, on Fes (h), the “C4 score (inhibition of Fes human)” value is on record as 1 (Score 1=10-30% inhibition). In addition, the “C6 score (inhibition of Flt3 human)” value on Flt3 (h) is listed as 2 (Score 2=30-60% inhibition).
